According to patent US5804576A, “Derivatives of 5-androsten-17-ones and 5-androstan-17-ones” (Research Corporation Technologies, Inc., priority 1986, dated 1998):
Several values for one entry are separate records, joined by “and”; a condition that tells them apart may be missing. Equal values may be shown once. Entries after “also recorded” stand apart in the source; their conditions may differ.

Experiments:
[1] = test system: (3H) DMBA binding to skin DNA; assay: [3H]DMBA binding to mouse skin DNA, topical steroid; assay type: in vivo, mouse (A/J)
Source text: Skin tumors can be induced in the mouse either by weekly application of a carcinogen such as […] (DMBA), or alternatively,by a single sub-threshold dose of the carcinogen followed by twice weekly applications of the tumor promoter tetradecanoylphorbol-13-acetate (TPA). In order to exert its carcinogenic effect, DMBA must be metabolized by an NADPH-dependent mixed-function oxidase to chemically reactive intermediates which bind covalently to DNA and produce mutations leading to malignant transformation. […] This effect of DHEA very probably is a result of the inhibition of G6PDH and lowering of the intracellular pool of NADPH, which is a co-factor for the mixed-function oxidase activation of DMBA.
Binding of [^3 H]DMBA to mouse skin DNA was determined as described in Pashko, L. L., and Schwartz, A. G. (1983), Effect of food restriction, dehydroepiandrosterone, or obesity on the binding of ^3 H-7,12-dimethylbenz(a)-anthracene to mouse skin DNA, J. Gerontol., 38, 8-12. Values are mean±SD for 3 individual determinations, with pooled tissue from 2 mice used for each determination. DHEA or testosterone (400 ug in 0.2 ml acetone) was applied to the skin one hour before [^3 H]DMBA. The mean weight of the food restricted mice was 18.5±1.0 gm, n=6, of the ad libitum fed, 27.4±1.0 gm, n=6, of the ad libitum fed treated with DHEA, 28.2±0.9 gm, n=6, and of the ad libitum fed treated with testosterone, 28.3±0.9 gm, n=6, following two weeks of feeding. The average food consumed was, in gm/mouse/day, 2.2, 3.8, 3.8 and 4.0 for the food restricted, ad libitum fed, ad libitum fed plus DHEA, and ad libitum fed plus testosterone groups, respectively.

[2] = test system: [3H]DMBA binding to skin DNA; assay: [3H]DMBA binding to skin DNA, oral steroid; assay type: in vivo, mouse (male A/J); details: four weeks treatment with 400 mg/kg
[3] = test system: spontaneous breast cancer in C3H mice; details: long-term treatment; cited from earlier work
[4] = test system: [3H]DMBA binding to skin DNA; assay: [3H]DMBA binding to skin DNA, oral steroid; assay type: in vivo, mouse (male A/J)
Method: (§1) Male A/J mice were orally intubated with steroid suspended in sesame oil (0.5 ml/mouse) at the indicated dose. Mice not receiving steroid were given sesame oil alone. Food restricted mice received approximately 60% of food of Ad libitum fed for two weeks. One hour after oral intubation, topical [^3 H]DMBA was applied to the skin, and the amount bound to DNA was determined 12 hours later as described in Table 4.
as §1, with “alone.” for “alone. Food restricted mice received approximately 60% of food of Ad libitum fed for two weeks.”

[5] = test system: Epstein-Barr virus-induced transformation of human lymphocytes; details: cited from earlier work
[6] = test system: seminal vesicles plus prostate glands; assay: Androgenic and anti-androgenic activity (seminal vesicle plus prostate weight); assay type: in vivo, mouse (male A/J); details: con't. experiment; five weeks; DHEA 0.54%; n = 5

In the case of `C[C@]12CC[C@H](O)CC1=CC[C@@H]1[C@@H]2CC[C@]2(C)C(=O)CC[C@@H]12` [DHEA, 3β-Hydroxy-5-androst-en-17-one, reference compound], the “SPECIFIC ACTIVITY ([3H]DMBA bound to skin DNA)” value ([1]; 400 ug topical one hour before DMBA, ad libitum fed, Table 4) is reported as 66 ± 13 cpm/ug DNA, the “rate of binding of topically applied 3H-DMBA to skin DNA (in words)” value ([1]; topical, A/J mouse) is reported as “inhibits the rate of binding of topically applied ^3 H-DMBA to A/J mouse skin DNA” and the “3H-DMBA binding to skin DNA (in words)” value [2] is reported as “does inhibit ^3 H-DMBA binding to skin DNA”. The “spontaneous breast cancer development (in words)” value [3] was “markedly inhibits spontaneous breast cancer development”, the “weight gain (in words)” value [3] was “reducing weight gain without suppressing appetite” and the “SPECIFIC ACTIVITY ([3H]DMBA bound to skin DNA)” value ([4]; 400 mg/kg p.o., 12 hours) was 73.1 ± 16.5 cpm/ug DNA and 92 ± 17.6 cpm/ug DNA. For the same compound, the “3H-DMBA binding to skin DNA (in words)” value ([4]; oral, single administration) was “does not inhibit ^3 H-DMBA binding to skin DNA; also recorded: inactive”, the “inhibition of Epstein-Barr virus-induced transformation (in words)” value [5] was “inhibitors of Epstein-Barr virus-induced transformation of human lymphocytes” and the “Mean Seminal Vesicle plus Prostate Weight ± S.D.” value [6] was 5.02 ± 0.41 mg/100 gm body weight.
